Experimental findings from US20240254119A1 (THIRD HARMONIC BIO, INC., priority 2022, published 2024) are described below.

For data set [1], the system named is KIT phosphorylation in M-07e cells. The data set can be described thus: Cell-based KIT phosphorylation in M-07e cells by pKIT ELISA. Also on record: species or system human. Conditions: SCF stimulation. The essentials:
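Serum-starved M-07e cells (1 × 10^6/mL, overnight) were treated with compounds (8-point 3-fold series from 1 uM) for 2 h at 37 °C, then stimulated with 100 ng/mL SCF for 5 min. Lysate phospho-KIT was captured on anti-phospho-CD117 plates, detected with anti-pY-HRP, and read at 450 nm against a pc-KIT standard curve.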

Another data set concerns the target T1, MDR1 (MDR1-MDCKII cells) (Homo sapiens, UniProt P08183).
T1 construct: host or cells: MDCKII (canine kidney) cells
The data set can be described thus: Permeability in MDR1-MDCKII cells. It is filed as in vitro ADME. The note with it: for MDCKII-MDR1: Papp A-B: MDCKII-MDR1, apical to basolateral. Here is the method: Exemplary compounds were tested for cell permeability in Caco-2, MDCKII-MDR1 and MDCKII-BCRP cell lines with efflux transporter engagement inferred from the efflux ratios determined. Procedures and results are described below. […] This feature of certain compounds is in part due to efflux transporter engagement. See, for instance, exemplary such compounds included in data tables below.
MDR1-MDCKII cells (obtained from Piet Borst at the Netherlands Cancer Institute) were seeded onto […] membranes (PET) in 96-well insert systems at 2.5×10^5 cells/mL until to 4-7 days for confluent cell monolayer formation.
Test compounds were diluted with the transport buffer (HBSS with 10 mM Hepes, pH7.4) from DMSO stock solution to a concentration of 2.00 μM (DMSO<1%) and applied to the apical or basolateral side of the cell monolayer. Permeation of the test compounds from A to B direction or B to A direction was determined in duplicate. Digoxin was tested at 10.0 μM from A to B direction or B to A direction as well, while nadolol and metoprolol were tested at […] in A to B direction in duplicate. The plate was incubated for 2.5 hours in CO2 incubator at 37±1° C., with 5% CO2 at saturated humidity without shaking. In addition, the efflux ratio of each compound was also determined. Test and reference compounds were quantified by LC-MS/MS analysis based on the peak area ratio of analyte/IS.
After transport assay, Lucifer yellow rejection assay are applied to determine the cell monolayer integrity. Buffers are removed from both apical and basolateral chambers, followed by the addition of 75 μL of 100 μM lucifer yellow in transport buffer and 250 μL transport buffer in apical and basolateral chambers, respectively. The plate is incubated for 30 minutes at 37° C. with 5% CO2 and saturated humidity without shaking. After 30 minutes incubation, 20 μL of lucifer yellow samples are taken from the apical sides, followed by the addition of 60 μL of Transport Buffer. And then 80 μL of lucifer yellow samples are taken from the basolateral sides. The relative fluorescence unit (RFU) of lucifer yellow is measured at 425/528 nm (excitation/emission) with an Envision plate reader.
The apparent permeability coefficient Papp (cm/s) was calculated using the equation: […]
Where dCr/dt is the cumulative concentration of compound in the receiver chamber as a function of time (μM/s); Vr is the solution volume in the receiver chamber (0.075 mL on the apical side, 0.25 mL on the basolateral side); A is the surface area for the transport, i.e. 0.0804 cm^2 for the area of the monolayer; C0 is the initial concentration in the donor chamber (μM). The efflux ratio was calculated using the equation: […]
Where Vd is the volume in the donor chambers (0.075 mL on the apical side, 0.25 mL on the basolateral side); Cd and Cr are the final concentrations of transport compound in donor and receiver chambers, respectively.

Structures are written as SMILES. A value given as a limit tells only on which side of the number the result lay.

T1 sequence (P08183 whole entry): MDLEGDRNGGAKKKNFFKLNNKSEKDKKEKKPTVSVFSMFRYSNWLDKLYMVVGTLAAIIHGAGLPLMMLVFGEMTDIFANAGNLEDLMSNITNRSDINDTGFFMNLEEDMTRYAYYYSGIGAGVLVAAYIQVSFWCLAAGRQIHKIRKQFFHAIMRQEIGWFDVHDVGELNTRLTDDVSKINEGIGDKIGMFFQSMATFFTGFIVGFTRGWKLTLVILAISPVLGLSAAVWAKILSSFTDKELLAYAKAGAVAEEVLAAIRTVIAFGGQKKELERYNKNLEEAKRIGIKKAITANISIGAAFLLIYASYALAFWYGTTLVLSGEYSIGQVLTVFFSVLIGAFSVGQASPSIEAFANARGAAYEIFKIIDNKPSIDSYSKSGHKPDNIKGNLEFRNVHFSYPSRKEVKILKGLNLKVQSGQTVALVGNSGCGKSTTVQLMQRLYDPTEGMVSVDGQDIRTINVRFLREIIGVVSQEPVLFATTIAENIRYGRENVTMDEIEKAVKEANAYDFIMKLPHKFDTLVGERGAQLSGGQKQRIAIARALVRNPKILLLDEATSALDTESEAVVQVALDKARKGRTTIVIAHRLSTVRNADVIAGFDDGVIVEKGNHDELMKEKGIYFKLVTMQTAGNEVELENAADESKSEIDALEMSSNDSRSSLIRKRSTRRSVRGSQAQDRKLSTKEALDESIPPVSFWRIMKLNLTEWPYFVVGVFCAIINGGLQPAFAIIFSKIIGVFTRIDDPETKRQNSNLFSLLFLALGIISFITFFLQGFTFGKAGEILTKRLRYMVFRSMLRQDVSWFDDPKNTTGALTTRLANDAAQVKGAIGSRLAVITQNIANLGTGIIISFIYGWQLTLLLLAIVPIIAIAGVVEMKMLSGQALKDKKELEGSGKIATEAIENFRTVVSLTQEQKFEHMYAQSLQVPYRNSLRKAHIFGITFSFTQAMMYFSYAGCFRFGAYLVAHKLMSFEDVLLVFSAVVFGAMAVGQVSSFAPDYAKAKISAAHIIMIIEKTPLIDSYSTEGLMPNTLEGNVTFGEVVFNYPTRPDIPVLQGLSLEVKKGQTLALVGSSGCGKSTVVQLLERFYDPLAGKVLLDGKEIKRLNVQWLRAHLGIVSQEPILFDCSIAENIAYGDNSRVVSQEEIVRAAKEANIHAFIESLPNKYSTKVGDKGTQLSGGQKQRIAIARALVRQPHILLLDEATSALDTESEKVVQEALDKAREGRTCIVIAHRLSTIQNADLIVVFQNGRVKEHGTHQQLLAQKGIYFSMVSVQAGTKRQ

As to `COC(=O)N1CC(c2nc(-c3ccc(Cl)c(NC(=O)c4cnc5ccccn45)c3)no2)C1` [Compound I-339], the IC50 in data set [1] is not above 50 nM. Moreover, on MDR1 (MDR1-MDCKII cells), the “MDCKII-MDR1: Efflux Ratio” value is recorded as 0.84 and the “MDCKII-MDR1: Papp A-B” value is given as 22.8 10^−6 cm/s. With `COC(=O)N1CC(c2nc(-c3ccc(C)c(NC(=O)c4cnc5cc(OC[C@@H](C)O)ccn45)c3)no2)C1` [Compound I-263], the IC50 in data set [1] was not above 50 nM. `Cc1ccc(-c2noc(C3CN(C(=O)CO)C3)n2)cc1NC(=O)c1cnc2ccccn12` [Compound I-287]: at MDR1 (MDR1-MDCKII cells), the “MDCKII-MDR1: Efflux Ratio” value was found to be 27.9 and the “MDCKII-MDR1: Papp A-B” value is 0.83 10^−6 cm/s. As to `Cc1ccc(-c2noc(CC3CC3(F)F)n2)cc1NC(=O)c1cnc2ccccn12` (stereo not shown) [Compound I-125], in data set [1], the IC50 was not above 50 nM.

As for `Cc1ccc(-c2noc(C3(N)CC4(CC(F)(F)C4)C3)n2)cc1NC(=O)c1cnc2ccccn12` [Compound I-307], on MDR1 (MDR1-MDCKII cells), the “MDCKII-MDR1: Efflux Ratio” value is reported as 1.93 and the “MDCKII-MDR1: Papp A-B” value is recorded as 8.84 10^−6 cm/s.

`Cc1ccc(-c2noc([C@H]3C[C@@H]3F)n2)cc1NC(=O)c1cnn2ccccc12` [Compound I-109]: the IC50 in data set [1] is not above 50 nM. For the molecule `COc1ccn2c(C(=O)Nc3cc(-c4noc(C5CC(F)(F)C5)n4)ccc3C)cnc2c1` [Compound I-96], the IC50 in data set [1] is not above 50 nM. The same measure, in the same setting: the same measure for `COC(=O)N1CC(c2nc(-c3ccc(C)c(NC(=O)c4cnc5cc(OC[C@H](C)O)ccn45)c3)no2)C1` [Compound I-262]: not above 50 nM. For `Cc1ccc(-c2noc(C3CC(OCCF)C3)n2)cc1NC(=O)c1cnc2ccccn12` (stereo not shown) [Compound I-369], on MDR1 (MDR1-MDCKII cells), the “MDCKII-MDR1: Efflux Ratio” value is reported as 0.87 and the “MDCKII-MDR1: Papp A-B” value is on record as 24.4 10^−6 cm/s. On the same counts, the results for `Cc1ccc(-c2noc(C(C)O)n2)cc1NC(=O)c1cnc2ccccn12` (racemic) [Compound I-364] are 2.02 and 16 10^−6 cm/s. On to `Cc1ccc(-c2noc(CC(O)C(F)F)n2)cc1NC(=O)c1cnc2ccccn12` (stereo not shown) [Compound I-122], for which the IC50 in data set [1] is not above 50 nM. For `Cc1ccc(-c2noc([C@H]3CCC(=O)N3)n2)cc1NC(=O)c1cnc2ccccn12` (racemic) [Compound I-327], on MDR1 (MDR1-MDCKII cells), the “MDCKII-MDR1: Efflux Ratio” value worked out at 38.7 and the “MDCKII-MDR1: Papp A-B” value is recorded as 0.78 10^−6 cm/s. Regarding `COc1ccn2c(C(=O)Nc3cc(-c4noc(C[C@H](C)O)n4)ccc3C)cnc2c1` [Compound I-94], the IC50 in data set [1] is not above 50 nM. On the same count and under the same terms, the same measure for `COc1ccn2c(C(=O)Nc3cc(-c4noc(CC(O)C(F)F)n4)ccc3C)cnc2c1` (single isomer, unassigned) [Compound I-76]: not above 50 nM. In the case of `Cc1ccc(-c2noc([C@H]3C[C@@H]3F)n2)cc1NC(=O)c1cnc2cc(COCC(C)(C)O)ccn12` [Compound I-71, N-[5-[5-[(1R,2S)-2-fluorocyclopropyl]-1,2,4-oxadiazol-3-yl]-2-methyl-phenyl]-7-[(2-hydroxy-2-methyl-propoxy)methyl]imidazo[1,2-a]pyridine-3-carboxamide], the IC50 in data set [1] (Homo sapiens) is not above 50 nM. Turning to `Cc1ccc(-c2noc(CC(C)O)n2)cc1NC(=O)c1cnc2ccccn12` (racemic) [Compound I-363], on MDR1 (MDR1-MDCKII cells), the “MDCKII-MDR1: Efflux Ratio” value was found to be 2.01 and the “MDCKII-MDR1: Papp A-B” value is recorded as 13 10^−6 cm/s. For the molecule `COc1ccn2c(C(=O)Nc3cc(-c4noc(CC5CC(F)(F)C5)n4)ccc3C)cnc2c1` [Compound I-91], the half-inhibitory concentration (IC50) in data set [1] was not above 50 nM. The same measure, in the same setting: as for `CCOc1ccn2c(C(=O)Nc3cc(-c4noc([C@H]5C[C@@H]5F)n4)ccc3C)cnc2c1` [Compound I-93], the figure is not above 50 nM. Turning to `COc1ccc2ncc(C(=O)Nc3cc(-c4noc(C[C@@H](C)O)n4)ccc3C)n2c1` [Compound I-119], in data set [1], the IC50 was not above 50 nM.

Turning to `Cc1ccc(-c2noc(C3CCN3)n2)cc1NC(=O)c1cnc2ccccn12` (racemic) [Compound I-394], at MDR1 (MDR1-MDCKII cells), the “MDCKII-MDR1: Efflux Ratio” value is reported as 3.08 and the “MDCKII-MDR1: Papp A-B” value was 6.21 10^−6 cm/s. Take `Cc1ccc(-c2noc([C@H]3C[C@@H]3F)n2)cc1NC(=O)c1cnc2ccc(C#N)cn12` [Compound I-384]: on MDR1 (MDR1-MDCKII cells), the “MDCKII-MDR1: Efflux Ratio” value is given as 0.88 and the “MDCKII-MDR1: Papp A-B” value is reported as 17.9 10^−6 cm/s. With `Cc1ccc(-c2noc([C@@H](C)O)n2)cc1NC(=O)c1cnc2ccccn12` [Compound I-270], on MDR1 (MDR1-MDCKII cells), the “MDCKII-MDR1: Efflux Ratio” value worked out at 1.73 and the “MDCKII-MDR1: Papp A-B” value is on record as 17.2 10^−6 cm/s. In the case of `Cc1nc(-c2ccc(C)c(NC(=O)c3cnc4ccc(N(C)C)cn34)c2)no1` [Compound I-205], the IC50 in data set [1] is not above 50 nM. Turning to `Cc1ccc(-c2noc(C3CCC3F)n2)cc1NC(=O)c1cnc2ccccn12` (racemic) [Compound I-377], the half-maximal inhibitory concentration (IC50) in data set [1] was not above 50 nM. On the same count and under the same terms, the same measure for `COCCS(=O)(=O)N1CC(c2nc(-c3ccc(C)c(NC(=O)c4cnc5ccccn45)c3)no2)C1` [Compound I-235]: 50 to 500 nM; for `Cc1ccc(-c2noc(C(C)NS(C)(=O)=O)n2)cc1NC(=O)c1cnc2ccccn12` (single isomer, unassigned) [Compound I-238]: 50 to 500 nM. For the molecule `Cc1ccc(-c2noc(C3(O)CC(F)(F)C3)n2)cc1NC(=O)c1cnc2ccccn12` [Compound I-380], at MDR1 (MDR1-MDCKII cells), the “MDCKII-MDR1: Efflux Ratio” value came to 2.34 and the “MDCKII-MDR1: Papp A-B” value was 10.9 10^−6 cm/s. As to `Cc1ccc(-c2noc(C3(C)CC(F)(F)CN3)n2)cc1NC(=O)c1cnc2ccccn12` (racemic) [Compound I-328], at MDR1 (MDR1-MDCKII cells), the “MDCKII-MDR1: Efflux Ratio” value is 0.93 and the “MDCKII-MDR1: Papp A-B” value was 20.8 10^−6 cm/s. `COC(=O)N1CC(c2nc(-c3ccc(C)c(NC(=O)c4cnn5cc(C#N)ccc45)c3)no2)C1` [Compound I-204]: the IC50 in data set [1] was in the range of 50 to 500 nM.

`Cc1ccc(-c2noc(C3CC4(CCC4)C3)n2)cc1NC(=O)c1cnc2ccccn12` [Compound I-367]: the IC50 in data set [1] is not above 50 nM. Consider `CNC(=O)N1CC(c2nc(-c3ccc(C)c(NC(=O)c4cnc5ccccn45)c3)no2)C1` [Compound I-282], for which, at MDR1 (MDR1-MDCKII cells), the “MDCKII-MDR1: Efflux Ratio” value is on record as 70.3 and the “MDCKII-MDR1: Papp A-B” value is given as 0.47 10^−6 cm/s.

Consider `COC(=O)N1CC(c2nc(-c3ccc(C)c(NC(=O)c4cnc5cc(O[C@@H](C)CO)ccn45)c3)no2)C1` (single isomer, unassigned) [Compound I-217], for which, in data set [1], the half-maximal inhibitory concentration (IC50) was 50 to 500 nM. The same measure, in the same setting: the same measure for `Cc1nc(-c2ccc(C)c(NC(=O)c3cnc4cc(C(F)F)ccn34)c2)no1` [Compound I-134]: 500 to 5000 nM. Consider `CCCNc1ccn2c(C(=O)Nc3cc(-c4noc([C@H]5C[C@@H]5F)n4)ccc3C)cnc2c1` [Compound I-304], for which, on MDR1 (MDR1-MDCKII cells), the “MDCKII-MDR1: Efflux Ratio” value came to 1.08 and the “MDCKII-MDR1: Papp A-B” value is recorded as 3.65 10^−6 cm/s.

For the molecule `Cc1ccc(-c2noc(C3CCS(=O)(=O)C3)n2)cc1NC(=O)c1cnc2ccccn12` (racemic) [Compound I-389], at MDR1 (MDR1-MDCKII cells), the “MDCKII-MDR1: Efflux Ratio” value is reported as 10.9 and the “MDCKII-MDR1: Papp A-B” value is listed as 3.53 10^−6 cm/s. In the case of `Cc1ccc(-c2noc(CO)n2)cc1NC(=O)c1cnc2ccccn12` [Compound I-337], the concentration for half-maximal inhibition (IC50) in data set [1] is not above 50 nM. As to `Cc1ccc(-c2noc(CC3CC(F)(F)C3)n2)cc1NC(=O)c1cnc2ccccn12` [Compound I-124], the IC50 in data set [1] was not above 50 nM. On the same count and under the same terms, as for `Cc1nc(-c2ccc(C)c(NC(=O)c3cnc4ccccn34)c2)no1` [Compound I-360], the figure is not above 50 nM; as for `Cc1ccc(-c2cnc(N3CC(F)(F)C3)o2)cc1NC(=O)c1cnc2ccccn12` [Compound I-213], 50 to 500 nM.

The term IC50 denotes the concentration needed to halve the response being measured.
